Laboratory results taken from patent publication US8846704B2, “Thiopyrimidine-based compounds and uses thereof” (YM Biosciences Austraila Pty Ltd, priority 2007, dated 2014).
pIC50: −log10 of the molar value.

Target: T1, human CSF1-R (FMS) (Homo sapiens, UniProt P07333)
T1 construct: from codon I553 to Q961; GST (N); made in house; host or cells: Sf9 insect cells (baculovirus)
T1 sequence (P07333 553-961): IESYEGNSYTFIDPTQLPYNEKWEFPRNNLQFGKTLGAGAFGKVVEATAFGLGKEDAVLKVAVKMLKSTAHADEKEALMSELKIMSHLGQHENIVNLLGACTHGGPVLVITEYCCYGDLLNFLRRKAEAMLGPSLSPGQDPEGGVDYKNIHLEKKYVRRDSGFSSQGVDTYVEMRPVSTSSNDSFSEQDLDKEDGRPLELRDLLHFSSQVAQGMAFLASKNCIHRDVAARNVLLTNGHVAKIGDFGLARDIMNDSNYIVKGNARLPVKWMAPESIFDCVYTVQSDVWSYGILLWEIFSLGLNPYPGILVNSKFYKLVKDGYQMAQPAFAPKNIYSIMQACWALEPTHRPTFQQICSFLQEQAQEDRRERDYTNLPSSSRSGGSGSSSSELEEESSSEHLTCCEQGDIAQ
Experiment: Alphascreen tyrosine kinase enzyme assay, CSF-1R (FMS) kinase domain
Type: biochemical
Conditions: read-out: FMS, FLT3, or HCK IC50_nM (FMS)
Experimental: For screening purposes, compounds (in 100% DMSO) were warmed at 37 degrees for at least 20 minutes before use. A […] stock was initially made in assay buffer, where the final concentration of DMSO was 0.3%. The stocks were then diluted in 384 well Optiplates (Packard) where the final concentration of the compound was […].
The kinase domain of human CSF1-R from codon I553 to Q961 was cloned into the pDest20 expression vector (Invitrogen). The CSF1-R plasmid was then transformed into competent DH10Bac cells (Gibco), and the recombinant baculovirus produced prepared for transfection into Sf9 insect cells.
Baculovirus preparations from each of the constructs were infected into either one or five liters of Sf9 cells (Invitrogen) grown in SF-900 medium (Invitrogen) to a cell density of approximately 1-2×10^6 cells/ml. Cells were infected with virus at a MOI of 0.8-3.0. Cells were harvested and lysed. Tyrosine kinase domains were purified by affinity chromatography on a glutathione-agarose column (Scientifix Pty. Ltd. catalog #: GSH-200).
Kinase assays were performed in 384 well Optiplates (Packard) using an Alphascreen Protein Tyrosine Kinase PY100 detection kit The compounds were pre-incubated with affinity purified PTK domain in the presence of phosphotyrosine assay buffer (10 mM HEPES, pH 7.5, 100 mM MgCl2, 25 mM NaCl, […] and 0.1% Tween 20) for 20 minutes. The compounds were then incubated with substrate in the presence of ATP. The substrate used was susbtrate-1 with the sequence biotin-EGPWLEEEEEAYGWMDF-NH2 [SEQ. ID. NO. 13] (final concentration […]). For HCK 80 μm ATP was used and incubated for 60 minutes. Alphascreen phosphotyrosine acceptor beads followed by streptavidin donor beads at a concentration of 1/100 in stop buffer were added to each well under subdued light and incubated for 2-3 hours., The Alphascreen plates were read on a Packard Fusion Alpha instrument.

Question: C=CC(=O)Nc1ccc(Sc2ccnc(Nc3cccc(N4CCOCC4)c3)n2)cc1 [Compound 77, N-(4-(2-(3-morpholinophenylao)pyrimidin-4-ylthio)phenyl)acrylamide] was tested. Which pIC50 did it give?
Answer: The pIC50 was > 6.30.

Question: How did the pIC50 turn out when C=CC(=O)Nc1ccc(Sc2ccnc(Nc3cc(C)cc(C)c3)n2)cc1 [Compound 82, N-(4-(2-(3,5-dimethylphenylao)pyrimidin-4-ylthio)phenyl)acrylamide] was run?
Answer: The pIC50 was > 6.30.
